The values that follow are results of earlier work, collected in US10545077B2, “Solid phase microextraction coating” (JP SCIENTIFIC LIMITED, priority 2016, dated 2020).

The term LogP denotes the decadic logarithm of the partition coefficient of the neutral form, usually between octanol and water.

Structures are written as SMILES.

In the case of `CCCC1O[C@@H]2C[C@H]3[C@@H]4CCC5=CC(=O)C=C[C@]5(C)[C@H]4[C@@H](O)C[C@]3(C)[C@]2(C(=O)CO)O1` (stereo partly drawn) [Budesonide], the LogP was 2.42.
For the compound `C[C@]12C=CC(=O)C=C1CC[C@@H]1[C@@H]2[C@@H](O)C[C@@]2(C)[C@H]1CC[C@]2(O)C(=O)CO` [Prednisolone], the LogP was 1.66.
As for `CC(C)NCC(O)COc1ccc(COCCOC(C)C)cc1` (stereo not drawn) [Bisoprolol], the LogP is 1.87.
